Measured values from ChEMBL document CHEMBL4020842, “Discovery of N1-(4-((7-Cyclopentyl-6-(dimethylcarbamoyl)-7 H-pyrrolo[2,3- d]pyrimidin-2-yl)amino)phenyl)- N8-hydroxyoctanediamide as a Novel Inhibitor Targeting Cyclin-dependent Kinase 4/9 (CDK4/9) and Histone Deacetlyase1 (HDAC1) against Malignant Cancer” (J Med Chem, 2018).

Experiments:
[1] = target: CDK4/Cyclin D3 (Homo sapiens, UniProt P11802); test: Inhibition of recombinant human full length N-terminal GST-tagged CDK4/Cyclin-D3 co-expressed in baculovirus infected sf21 cells using Rb substrate in presence of [gamma33P]ATP after 10 mins by scintillation counting method
[2] = target: T1, Histone deacetylase 1 (Homo sapiens, UniProt Q13547); test: Inhibition of HDAC1 (unknown origin)
[3] = target: T1, Histone deacetylase 1; test: Potency index, ratio of vorinostat IC50 to compound IC50 for HDAC1 (unknown origin)

T1 sequence (Q13547 whole entry): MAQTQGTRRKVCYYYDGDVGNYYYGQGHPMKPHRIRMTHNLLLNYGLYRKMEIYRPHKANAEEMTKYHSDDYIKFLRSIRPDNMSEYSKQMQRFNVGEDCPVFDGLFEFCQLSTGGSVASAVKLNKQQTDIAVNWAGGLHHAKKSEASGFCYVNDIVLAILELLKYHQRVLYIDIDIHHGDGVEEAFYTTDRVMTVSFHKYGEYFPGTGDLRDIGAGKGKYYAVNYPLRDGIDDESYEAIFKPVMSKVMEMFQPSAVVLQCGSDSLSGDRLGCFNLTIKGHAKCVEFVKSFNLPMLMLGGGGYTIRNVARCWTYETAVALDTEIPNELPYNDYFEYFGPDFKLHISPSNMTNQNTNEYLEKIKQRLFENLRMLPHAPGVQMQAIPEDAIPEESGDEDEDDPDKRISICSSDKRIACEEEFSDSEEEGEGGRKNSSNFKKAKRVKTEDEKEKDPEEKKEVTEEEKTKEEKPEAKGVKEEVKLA
Chain of CDK4/Cyclin D3 (P11802 whole entry): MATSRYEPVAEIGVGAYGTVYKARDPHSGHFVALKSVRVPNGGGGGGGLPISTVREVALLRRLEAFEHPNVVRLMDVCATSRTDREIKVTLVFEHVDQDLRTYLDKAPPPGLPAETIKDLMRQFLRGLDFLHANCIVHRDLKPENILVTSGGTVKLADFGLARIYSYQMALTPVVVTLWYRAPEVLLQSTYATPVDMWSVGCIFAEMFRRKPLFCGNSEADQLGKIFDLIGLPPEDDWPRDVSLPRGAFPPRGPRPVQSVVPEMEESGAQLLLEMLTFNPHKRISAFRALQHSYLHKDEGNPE
Chain of CDK4/Cyclin D3 (P30281 whole entry, further chain): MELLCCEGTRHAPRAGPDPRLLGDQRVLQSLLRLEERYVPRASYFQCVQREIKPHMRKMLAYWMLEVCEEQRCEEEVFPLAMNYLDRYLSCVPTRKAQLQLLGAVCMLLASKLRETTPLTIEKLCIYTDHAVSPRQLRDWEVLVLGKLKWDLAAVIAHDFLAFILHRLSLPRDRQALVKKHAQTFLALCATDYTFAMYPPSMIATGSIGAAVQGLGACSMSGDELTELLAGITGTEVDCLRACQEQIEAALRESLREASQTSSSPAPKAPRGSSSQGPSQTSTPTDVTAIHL

Row | Structure (SMILES) | IC50 [1] | IC50 [2] | Ratio IC50 [3]
1 | COC(=O)CCCCC(=O)Nc1ccc(Nc2ncc3cc(C(=O)N(C)C)n(C4CCCC4)c3n2)cc1 | 4.8 nM |  | 
2 | CN(C)C(=O)c1cc2cnc(Nc3ccc(NC(=O)CCCCCCCC(=O)NO)cc3)nc2n1C1CCCC1 | 8.1 nM | 3 nM | 10 to 100
3 | CN(C)C(=O)c1cc2cnc(Nc3ccc(C(=O)NCCCCCCCC(=O)NO)cc3)nc2n1C1CCCC1 | 26 nM | 1.6 nM | 10 to 100
4 | COC(=O)CCCCCNC(=O)c1ccc(Nc2ncc3cc(C(=O)N(C)C)n(C4CCCC4)c3n2)cc1 | 7.3 nM |  | 
5 | CN(C)C(=O)c1cc2cnc(Nc3ccc(C(=O)NCCCCCC(=O)NO)cc3)nc2n1C1CCCC1 | 9.6 nM | 0.53 nM | 10 to 100
6 | CCCCCCCC(=O)Nc1ccc(Nc2ncc3cc(C(=O)N(C)C)n(C4CCCC4)c3n2)cc1 | 29 nM |  | 
7 | CN(C)C(=O)c1cc2cnc(Nc3ccc(N4CCN(C(=O)CCCCCCC(=O)NO)CC4)cn3)nc2n1C1CCCC1 | 13 nM | 39 nM | 10 to 100
8 | COC(=O)CCCCCCC(=O)Nc1ccc(Nc2ncc3cc(C(=O)N(C)C)n(C4CCCC4)c3n2)cc1 | 12 nM | > 5000 nM | 10 to 100
9 | COC(=O)CCCCCCNC(=O)c1ccc(Nc2ncc3cc(C(=O)N(C)C)n(C4CCCC4)c3n2)cc1 | 11 nM |  | 
10 | COC(=O)CCCCCCC(=O)Nc1ccc(Nc2ncc3cc(C(=O)N(C)C)n(C4CCCC4)c3n2)nc1 | 47 nM | > 5000 nM | 10 to 100
11 | COC(=O)CCCCCCCNC(=O)c1ccc(Nc2ncc3cc(C(=O)N(C)C)n(C4CCCC4)c3n2)cc1 | 8.2 nM |  | 
12 | CN(C)C(=O)c1cc2cnc(Nc3cccc(NC(=O)CCCCCCC(=O)NO)c3)nc2n1C1CCCC1 | 30 nM | 0.84 nM | 10 to 100
13 | CCCCCCCCC(=O)Nc1ccc(Nc2ncc3cc(C(=O)N(C)C)n(C4CCCC4)c3n2)cc1 | 123 nM |  | 
14 | CN(C)C(=O)c1cc2cnc(Nc3ccc(NC(=O)NCCCCCC(=O)NO)cc3)nc2n1C1CCCC1 | 8.4 nM | 1.6 nM | 10 to 100
15 | COC(=O)CCCCCNC(=O)Nc1ccc(Nc2ncc3cc(C(=O)N(C)C)n(C4CCCC4)c3n2)cc1 | 23 nM |  | 
16 | CCCCCCC(=O)Nc1ccc(Nc2ncc3cc(C(=O)N(C)C)n(C4CCCC4)c3n2)cc1 | 27 nM |  | 
17 | CN(C)C(=O)c1cc2cnc(Nc3ccc(NC(=O)CCCCC(=O)NO)cc3)nc2n1C1CCCC1 | 11 nM | 27 nM | 10 to 100
18 | COC(=O)CCCCCCC(=O)Nc1ncc2cc(C(=O)N(C)C)n(C3CCCC3)c2n1 | > 5000 nM |  | 
19 | CCCCCC(=O)Nc1ccc(Nc2ncc3cc(C(=O)N(C)C)n(C4CCCC4)c3n2)cc1 | 10 nM | > 5000 nM | 10 to 100
20 | O=C(CCCCCCC(=O)Nc1ccc(Nc2ncc3nnn(C4CCCC4)c3n2)cc1)NO | 1140 nM | 433 nM | 10 to 100
21 | COC(=O)CCCCCCC(=O)Nc1ccccc1Nc1ncc2cc(C(=O)N(C)C)n(C3CCCC3)c2n1 | > 5000 nM |  | 

Row | Structure (SMILES) | IC50 [1] | IC50 [2] | Ratio IC50 [3]
22 | CN(C)C(=O)c1cc2cnc(Nc3ccc(C(=O)NCCCCC(=O)NO)cc3)nc2n1C1CCCC1 | 11 nM |  | 
23 | COC(=O)CCCCCCC(=O)NCc1ccc(Nc2ncc3cc(C(=O)N(C)C)n(C4CCCC4)c3n2)cc1 | 25 nM |  | 
24 | COC(=O)CCCCCCCC(=O)Nc1ccc(Nc2ncc3cc(C(=O)N(C)C)n(C4CCCC4)c3n2)cc1 | 24 nM |  | 
25 | CN(C)C(=O)c1cc2cnc(Nc3ccc(NC(=O)CCCCCCC(=O)NO)cn3)nc2n1C1CCCC1 | 93 nM | 423 nM | 10 to 100
26 | COC(=O)CCCCNC(=O)c1ccc(Nc2ncc3cc(C(=O)N(C)C)n(C4CCCC4)c3n2)cc1 | 6.3 nM |  | 
27 | CN(C)C(=O)c1cc2cnc(Nc3ccc(NC(=O)CCCCCC(=O)NO)cc3)nc2n1C1CCCC1 | 10 nM | 0.84 nM | 10 to 100
28 | COC(=O)CCCCCCC(=O)Nc1ccc(Nc2ncc3nnn(C4CCCC4)c3n2)cc1 | 857 nM | > 5000 nM | 10 to 100
29 | COC(=O)CCCCCCC(=O)N1CCN(c2ccc(Nc3ncc4cc(C(=O)N(C)C)n(C5CCCC5)c4n3)nc2)CC1 | 13 nM | > 5000 nM | 10 to 100
30 | COC(=O)CCCCCCC(=O)Nc1ccc(Nc2ncc3cc(C(=O)N(C)C)n(C4CCCC4)c3n2)cn1 | 16 nM |  | 
31 | CN(C)C(=O)c1cc2cnc(Nc3ccc(NC(=O)CCCCCCC(=O)O)cc3)nc2n1C1CCCC1 | 18 nM | > 5000 nM | 10 to 100
32 | COC(=O)CCCCCCC(=O)Nc1ccc(Nc2ncc3ncn(C4CCCC4)c3n2)cc1 | > 5000 nM | > 5000 nM | 10 to 100
33 | CN(C)C(=O)c1cc2cnc(Nc3ccc(NC(=O)CCCCCCCO)cc3)nc2n1C1CCCC1 | 10 nM | > 5000 nM | 10 to 100
34 | CN(C)C(=O)c1cc2cnc(Nc3ccc(C(=O)NCCCCCCC(=O)NO)cc3)nc2n1C1CCCC1 | 12 nM | 1.4 nM | 10 to 100
35 | COC(=O)CCCCCC(=O)Nc1ccc(Nc2ncc3cc(C(=O)N(C)C)n(C4CCCC4)c3n2)cc1 | 10 nM |  | 
36 | COC(=O)CCCCCCC(=O)NNc1ncc2cc(C(=O)N(C)C)n(C3CCCC3)c2n1 | > 5000 nM |  | 
37 | CN(C)C(=O)c1cc2cnc(Nc3ccc(CNC(=O)CCCCCCC(=O)NO)cc3)nc2n1C1CCCC1 | 10 nM | 53 nM | 10 to 100
38 | CN(C)C(=O)c1cc2cnc(Nc3ccccc3NC(=O)CCCCCCC(=O)NO)nc2n1C1CCCC1 | > 5000 nM | 37 nM | 10 to 100
39 | COC(=O)CCCCCCC(=O)Nc1cccc(Nc2ncc3cc(C(=O)N(C)C)n(C4CCCC4)c3n2)c1 | 26 nM |  | 
40 | O=C(CCCCCCC(=O)Nc1ccc(Nc2ncc3ncn(C4CCCC4)c3n2)cc1)NO | > 5000 nM | 2.6 nM | 10 to 100
41 | CN(C)C(=O)CCCCCCC(=O)Nc1ccc(Nc2ncc3cc(C(=O)N(C)C)n(C4CCCC4)c3n2)cc1 | 16 nM | > 5000 nM | 10 to 100
